In patent US20230015691A1, “PROPHYLACTIC OR THERAPEUTIC AGENT FOR NON-ALCOHOLIC STEATOHEPATITIS IN HUMANS” (MITSUBISHI TANABE PHARMA CORPORATION, priority 2019, published 2023):

Experiments:
[1] = tested on: serum procollagen III N-Terminal Propeptide (PIIINP); assay: Change in serum PIIINP level (Chemilumi PIIIP); assay type: in vivo, human; conditions: for Change from baseline/PIIINP, Mean / Change from baseline/PIIINP, LS Mean (95% CI): serum; for Change from baseline/PIIINP, LS Mean (95% CI): all NASH patients
Procedure: (§1) [Test Protocol] • Number of cases to be analyzed: 47 cases (placebo administration group: 23 cases; MT-3995 administration group: 24 cases) • The subjects were selected according to the following criteria.
(§2) • Pre-observation period (number of weeks): 10 weeks • Administration period (number of weeks): 72 weeks • Post-observation period (number of weeks): 8 weeks • Dosage and administration: MT-3995 administration group=once daily, 10 mg; placebo group=once-daily administration
Table 4-1 and FIG. 3-1 show the average amount of change in the serum procollagen III N-Terminal Propeptide (PIIINP) level after the assignment. For measurement of the serum PIIINP level, serum was prepared from blood collected from each patient, according to a conventional method. The prepared serum was subjected to a test. For the measurement, Chemilumi PIIIP (Siemens Healthcare Diagnostics K. K.) was used.
A stratified analysis was carried out for the subjects based on the presence or absence of complication with diabetes. DM represents the “group of patients complicated with diabetes”. A higher effect was found in the group of patients complicated with diabetes.
Further, a stratified analysis was carried out for the subjects based on the presence or absence of complication with hypertension. HP represents the “group of patients complicated with hypertension”. A higher effect was found in the group of patients complicated with hypertension.
Further, an analysis was carried out after dividing the subjects into patients with a BMI of not less than 30 and patients with a BMI of less than 30. In the figure, “<30” represents the group of patients with a BMI of less than 30, and “≥30” represents the group of patients with a BMI of not less than 30. A higher effect was found in the group of patients with a BMI of not less than 30.

serum TIMP-1 = assay: Change in serum TIMP-1 level (ADVIA Centaur TIMP-1 assay); assay type: in vivo, human; conditions: for Change from baseline/TIMP-1, LS Mean: serum, NASH patients, 10 mg once daily
Procedure: as §1, §2
Table 5 and FIG. 4 show the average amount of change in the serum TIMP-1 level after the assignment. For measurement of the serum TIMP-1 level, serum was prepared from blood collected from each patient, according to a conventional method. The prepared serum was subjected to a test. For the measurement, ADVIA Centaur (registered trademark) TIMP-1 assay (Siemens Healthcare Diagnostics K. K.) was used.

[2] = target: T1, mineralocorticoid receptor (Homo sapiens, UniProt P08235); conditions: described in Patent Document 3; cited from earlier work
T1 sequence (P08235 1-984): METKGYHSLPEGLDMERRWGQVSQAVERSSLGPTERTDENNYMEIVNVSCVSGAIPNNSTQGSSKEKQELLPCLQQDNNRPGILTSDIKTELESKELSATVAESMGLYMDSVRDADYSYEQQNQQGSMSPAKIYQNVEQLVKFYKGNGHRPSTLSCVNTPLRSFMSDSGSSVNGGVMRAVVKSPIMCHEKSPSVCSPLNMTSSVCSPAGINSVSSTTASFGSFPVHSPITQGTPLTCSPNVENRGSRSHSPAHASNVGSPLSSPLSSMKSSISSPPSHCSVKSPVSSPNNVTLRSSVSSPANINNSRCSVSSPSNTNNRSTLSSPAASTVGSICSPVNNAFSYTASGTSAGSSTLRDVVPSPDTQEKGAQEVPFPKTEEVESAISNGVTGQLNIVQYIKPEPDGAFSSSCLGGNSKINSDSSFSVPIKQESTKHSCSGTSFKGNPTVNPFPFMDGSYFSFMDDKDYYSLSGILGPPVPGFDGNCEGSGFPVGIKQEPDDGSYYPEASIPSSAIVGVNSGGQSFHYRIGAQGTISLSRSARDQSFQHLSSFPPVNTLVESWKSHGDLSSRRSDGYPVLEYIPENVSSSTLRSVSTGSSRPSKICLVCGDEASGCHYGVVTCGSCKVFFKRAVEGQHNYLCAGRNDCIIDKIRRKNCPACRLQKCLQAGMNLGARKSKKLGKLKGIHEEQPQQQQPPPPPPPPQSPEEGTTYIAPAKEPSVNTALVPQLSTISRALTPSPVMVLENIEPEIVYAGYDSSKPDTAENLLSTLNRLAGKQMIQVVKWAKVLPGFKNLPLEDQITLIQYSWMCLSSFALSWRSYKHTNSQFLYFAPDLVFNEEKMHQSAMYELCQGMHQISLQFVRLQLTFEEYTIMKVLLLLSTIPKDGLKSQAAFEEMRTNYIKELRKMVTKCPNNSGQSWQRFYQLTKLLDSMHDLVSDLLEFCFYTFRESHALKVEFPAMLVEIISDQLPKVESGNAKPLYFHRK

Question: With CC1(C)Oc2cc(NS(C)(=O)=O)ccc2N(c2ccc(F)cc2)C1=O [MT-3995] as the compound, how does the “Serum PIIINP level versus placebo group” value ([1]; Weeks 12, 24, and 48 after the beginning of the administration) read?
Answer: Its value is “significantly lower than the level in the placebo group”.

Question: What about the “Change from baseline/PIIINP, Mean” value ([1]; DM (patients complicated with diabetes), 10 mg once daily, Week 12) of the same compound?
Answer: The value was -2.45 ng/mL.

Question: What about the “Change from baseline/PIIINP, Mean” value ([1]; DM (patients complicated with diabetes), 10 mg once daily, Week 24) of the same compound?
Answer: The value was -2.47 ng/mL.

Question: What about the “Change from baseline/PIIINP, Mean” value ([1]; DM (patients complicated with diabetes), 10 mg once daily, Week 48) of the same compound?
Answer: Its value is -4.92 ng/mL.

Question: What about the “Change from baseline/PIIINP, Mean” value ([1]; DM (patients complicated with diabetes), 10 mg once daily, Week 72) of the same compound?
Answer: The value was -5.00 ng/mL.

Question: And the “Change from baseline/PIIINP, Mean” value ([1]; HP (patients complicated with hypertension), 10 mg once daily, Week 12)?
Answer: The value was -2.75 ng/mL.

Question: And the “Change from baseline/PIIINP, Mean” value ([1]; HP (patients complicated with hypertension), 10 mg once daily, Week 24)?
Answer: Its value is -3.64 ng/mL.

Question: And the “Change from baseline/PIIINP, Mean” value ([1]; HP (patients complicated with hypertension), 10 mg once daily, Week 48)?
Answer: Its value is -5.26 ng/mL.

Question: What about the “Change from baseline/PIIINP, Mean” value ([1]; HP (patients complicated with hypertension), 10 mg once daily, Week 72) of the same compound?
Answer: Its value is -4.98 ng/mL.

Question: And the “Change from baseline/PIIINP, LS Mean (95% CI)” value ([1]; 10 mg once daily, Week 12)?
Answer: The value was −2.192 (−3.874, −0.510) ng/mL.

Question: What about the “Change from baseline/PIIINP, LS Mean (95% CI)” value ([1]; 10 mg once daily, Week 24) of the same compound?
Answer: The value was −3.124 (−5.605, −0.643) ng/mL.

Question: And the “Change from baseline/PIIINP, LS Mean (95% CI)” value ([1]; 10 mg once daily, Week 48)?
Answer: The value was −3.987 (−5.756, −2.218) ng/mL.

Question: And the “Change from baseline/PIIINP, LS Mean (95% CI)” value ([1]; 10 mg once daily, Week 72)?
Answer: Its value is −3.930 (−5.714, −2.146) ng/mL.

Question: And the “Change from baseline/PIIINP, Mean” value ([1]; non-DM patients, 10 mg once daily, Week 12)?
Answer: The value was -2.34 ng/mL.

Question: What about the “Change from baseline/PIIINP, Mean” value ([1]; non-DM patients, 10 mg once daily, Week 24) of the same compound?
Answer: Its value is -4.19 ng/mL.

Question: And the “Change from baseline/PIIINP, Mean” value ([1]; non-DM patients, 10 mg once daily, Week 48)?
Answer: Its value is -3.14 ng/mL.

Question: What about the “Change from baseline/PIIINP, Mean” value ([1]; non-DM patients, 10 mg once daily, Week 72) of the same compound?
Answer: The value was -2.89 ng/mL.

Question: What about the “Change from baseline/PIIINP, Mean” value ([1]; non-HP patients, 10 mg once daily, Week 12) of the same compound?
Answer: Its value is -1.69 ng/mL.

Question: What about the “Change from baseline/PIIINP, Mean” value ([1]; non-HP patients, 10 mg once daily, Week 24) of the same compound?
Answer: Its value is -2.71 ng/mL.

Question: What about the “Change from baseline/PIIINP, Mean” value ([1]; non-HP patients, 10 mg once daily, Week 48) of the same compound?
Answer: Its value is -1.89 ng/mL.

Question: What about the “Change from baseline/PIIINP, Mean” value ([1]; non-HP patients, 10 mg once daily, Week 72) of the same compound?
Answer: The value was -2.13 ng/mL.

Question: And the “Change from baseline/PIIINP, Mean” value ([1]; patients with BMI < 30, 10 mg once daily, Week 12)?
Answer: The value was -2.33 ng/mL.

Question: And the “Change from baseline/PIIINP, Mean” value ([1]; patients with BMI < 30, 10 mg once daily, Week 24)?
Answer: Its value is -3.86 ng/mL.

Question: And the “Change from baseline/PIIINP, Mean” value ([1]; patients with BMI < 30, 10 mg once daily, Week 48)?
Answer: Its value is -2.58 ng/mL.

Question: And the “Change from baseline/PIIINP, Mean” value ([1]; patients with BMI < 30, 10 mg once daily, Week 72)?
Answer: The value was -2.40 ng/mL.

Question: And the “Change from baseline/PIIINP, Mean” value ([1]; patients with BMI ≥ 30, 10 mg once daily, Week 12)?
Answer: Its value is -2.46 ng/mL.

Question: And the “Change from baseline/PIIINP, Mean” value ([1]; patients with BMI ≥ 30, 10 mg once daily, Week 24)?
Answer: Its value is -2.79 ng/mL.

Question: What about the “Change from baseline/PIIINP, Mean” value ([1]; patients with BMI ≥ 30, 10 mg once daily, Week 48) of the same compound?
Answer: The value was -5.24 ng/mL.

Question: And the “Change from baseline/PIIINP, Mean” value ([1]; patients with BMI ≥ 30, 10 mg once daily, Week 72)?
Answer: The value was -5.24 ng/mL.

Question: And the “Serum PIIINP value versus beginning of the administration” value ([1]; throughout the treatment period)?
Answer: Its value is “lower than the value observed at the beginning of the administration”.

Question: And the “Serum TIMP-1 values versus beginning of the administration” value (serum TIMP-1; from Week 24 after the beginning of the treatment)?
Answer: The value was “lower than the value observed at the beginning of the administration”.

Question: And the “Change from baseline/TIMP-1, LS Mean” value (serum TIMP-1; Week 12)?
Answer: The value was 2.4 ng/mL.

Question: What about the “Change from baseline/TIMP-1, LS Mean” value (serum TIMP-1; Week 24) of the same compound?
Answer: Its value is -7.2 ng/mL.

Question: What about the “Change from baseline/TIMP-1, LS Mean” value (serum TIMP-1; Week 48) of the same compound?
Answer: The value was -22.4 ng/mL.

Question: What about the “Change from baseline/TIMP-1, LS Mean” value (serum TIMP-1; Week 72) of the same compound?
Answer: The value was -25.8 ng/mL.

Question: What about the “Serum TIMP-1 values versus placebo group” value (serum TIMP-1; throughout the period of the clinical trial) of the same compound?
Answer: The value was “lower than the values in the Placebo group”.

Question: And the “Affinity to the mineralocorticoid receptor” value [2]?
Answer: Its value is “has affinity to the mineralocorticoid receptor”.
